# Literature values in patent publication US20240148037A1, “STEVIOL GLYCOSIDE FORMULATIONS FOR FOOD AND BEVERAGES” (SWEEGEN, INC., priority 2019, published 2024).
# Settings: relative to sucrose
row,Compound,times sweeter than sucrose
1,C=C1C[C@@]23CC[C@H]4[C@@](C)(CCC[C@@]4(C)C(=O)O[C@@H]4O[C@H](CO)[C@@H](O)[C@H](O)[C@H]4O)[C@@H]2CC[C@]1(O[C@@H]1O[C@H](CO)[C@@H](O)[C@H](O)[C@H]1O[C@@H]1O[C@@H](C)[C@H](O)[C@@H](O)[C@H]1O)C3 [Dulcoside A],about 30 times
2,C=C1C[C@@]23CC[C@H]4[C@@](C)(CCC[C@@]4(C)C(=O)O[C@@H]4O[C@H](CO)[C@@H](O)[C@H](O)[C@H]4O)[C@@H]2CC[C@]1(O[C@@H]1O[C@H](CO)[C@@H](O)[C@H](O)[C@H]1O[C@@H]1O[C@H](CO)[C@@H](O)[C@H](O)[C@H]1O)C3 [stevioside],100-150 times
3,Rebaudioside C,40-60 times
